BindingDB's records for doi:10.1016/j.bmcl.2016.04.018 (Merck Research Laboratories, 2016)

Experiment: Inhibition of human ERG expressed in HEK293 cells assessed as reduction in S35-MK-0499 binding

IC50: 8.34 µM
SMILES: O=C(Nc1cccc(Cl)c1)N1CCOc2ccc(-c3ccncc3)cc2C1
